Results published in patent publication US8952024B2, “Herbicidal pyrimidone derivatives” (E I du Pont de Nemours and Company, priority 2009, dated 2015).

How the values were obtained:
Experiment in all cases: Test B pre-/postemergence plant response
Type in all cases: in vivo
corn (Zea mays) = test system: corn (Zea mays)
In short: (§1)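 Compound in solvent + surfactant applied pre-em (loam/sand) or post-em (plants 2–18 cm, peat medium); greenhouse hold 13–15 days; visual 0–100 control score.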

[1] = test system: green foxtail (Setaria viridis)
In short: as §1

[2] = test system: bermudagrass (Cynodon dactylon)
In short: as §1

[3] = test system: woolly cupgrass (Eriochloa villosa)
In short: as §1

[4] = test system: downy bromegrass (Bromus tectorum)
In short: as §1

[5] = test system: yellow nutsedge (Cyperus esculentus)
In short: as §1

[6] = test system: lambsquarters (Chenopodium album)
In short: as §1

[7] = test system: Surinam grass (Brachiaria decumbens)
In short: as §1

[8] = test system: morningglory (Ipomoea coccinea)
In short: as §1

[9] = test system: Italian ryegrass (Lolium multiflorum)
In short: as §1

[10] = test system: giant foxtail (Setaria faberii)
In short: as §1

[11] = test system: large crabgrass (Digitaria sanguinalis)
In short: as §1

[12] = test system: blackgrass (Alopecurus myosuroides)
In short: as §1

[13] = 250 g ai/ha, Preemergence, 0 to 100 scale
[14] = Postemergence, 31 g ai/ha, scale 0 to 100 (0 no effect, 100 complete control)
[15] = Postemergence, 62 g ai/ha, scale 0 (no effect) to 100 (complete control), 13 to 15 days
[16] = Postemergence, 125 g ai/ha, visual rating after 13 to 15 days, scale 0 (no effect) to 100 (complete control)
[17] = Postemergence, 250 g ai/ha, scale 0 to 100
[18] = Preemergence, 31 g ai/ha, scale 0 to 100 (0 no effect, 100 complete control)
[19] = Preemergence, 62 g ai/ha, scale 0 to 100 (0 no effect, 100 complete control)
[20] = Preemergence, 125 g ai/ha, 0 to 100 scale

Cc1ccccc1-n1c(-c2cccc(Cl)c2)ncc(C(=O)C2=C(O)CCCC2=O)c1=O [Compound 36]
Plant response rating, Corn (corn (Zea mays); [13]): 0
Plant response rating, Corn (corn (Zea mays); [14]): 50
Plant response rating, Corn (corn (Zea mays); [15]): 55
Plant response rating, Corn (corn (Zea mays); [16]): 65
Corn plant response rating (corn (Zea mays); [17]): 85
Plant response rating, Corn (corn (Zea mays); [18]): 0
Plant response rating, Corn (corn (Zea mays); [19]): 0
Corn plant response rating (corn (Zea mays); [20]): 0
Plant response rating, Foxtail, Green [1, 13]: 85
Plant response rating, Foxtail, Green [1, 14]: 85
Plant response rating, Foxtail, Green [1, 15]: 90
Plant response rating, Foxtail, Green [1, 16]: 90
Foxtail, Green plant response rating [1, 17]: 90
Plant response rating, Foxtail, Green [1, 18]: 35
Plant response rating, Foxtail, Green [1, 19]: 80
Foxtail, Green plant response rating [1, 20]: 85
Plant response rating, Bermudagrass [2, 13]: 100
Plant response rating, Bermudagrass [2, 14]: 90
Plant response rating, Bermudagrass [2, 15]: 98
Plant response rating, Bermudagrass [2, 16]: 100
Bermudagrass plant response rating [2, 17]: 100
Plant response rating, Bermudagrass [2, 18]: 95
Plant response rating, Bermudagrass [2, 19]: 100
Bermudagrass plant response rating [2, 20]: 100
Plant response rating, Cupgrass, Woolly [3, 13]: 65
Plant response rating, Cupgrass, Woolly [3, 14]: 85
Plant response rating, Cupgrass, Woolly [3, 15]: 90
Plant response rating, Cupgrass, Woolly [3, 16]: 95
Cupgrass, Woolly plant response rating [3, 17]: 98
Plant response rating, Cupgrass, Woolly [3, 18]: 0
Plant response rating, Cupgrass, Woolly [3, 19]: 0
Cupgrass, Woolly plant response rating [3, 20]: 10
Plant response rating, Bromegrass, Downy [4, 13]: 10
Plant response rating, Bromegrass, Downy [4, 14]: 30
Plant response rating, Bromegrass, Downy [4, 15]: 30
Plant response rating, Bromegrass, Downy [4, 16]: 45
Bromegrass, Downy plant response rating [4, 17]: 65
Plant response rating, Bromegrass, Downy [4, 18]: 0
Plant response rating, Bromegrass, Downy [4, 19]: 0
Bromegrass, Downy plant response rating [4, 20]: 0
Plant response rating, Nutsedge, Yellow [5, 13]: 75
Plant response rating, Nutsedge, Yellow [5, 15]: 20
Plant response rating, Nutsedge, Yellow [5, 16]: 25
Plant response rating, Nutsedge, Yellow [5, 18]: 0
Nutsedge, Yellow plant response rating [5, 20]: 40
Plant response rating, Lambsquarters [6, 13]: 100
Plant response rating, Lambsquarters [6, 15]: 100
Plant response rating, Lambsquarters [6, 16]: 100
Lambsquarters plant response rating [6, 17]: 100
Plant response rating, Lambsquarters [6, 18]: 98
Plant response rating, Lambsquarters [6, 19]: 100
Lambsquarters plant response rating [6, 20]: 100
Plant response rating, Surinam Grass [7, 13]: 100
Plant response rating, Surinam Grass [7, 15]: 85
Plant response rating, Surinam Grass [7, 16]: 85
Plant response rating, Surinam Grass [7, 18]: 70
Surinam Grass plant response rating [7, 20]: 100
Plant response rating, Morningglory [8, 13]: 20
Plant response rating, Morningglory [8, 15]: 70
Plant response rating, Morningglory [8, 16]: 75
Plant response rating, Morningglory [8, 18]: 0
Plant response rating, Morningglory [8, 19]: 0
Morningglory plant response rating [8, 20]: 0
Plant response rating, Ryegrass, Italian [9, 13]: 0
Plant response rating, Ryegrass, Italian [9, 15]: 5
Plant response rating, Ryegrass, Italian [9, 16]: 10
Plant response rating, Ryegrass, Italian [9, 18]: 0
Ryegrass, Italian plant response rating [9, 20]: 0
Plant response rating, Foxtail, Giant [10, 13]: 80
Plant response rating, Foxtail, Giant [10, 14]: 95
Plant response rating, Foxtail, Giant [10, 15]: 95
Plant response rating, Foxtail, Giant [10, 16]: 98
Foxtail, Giant plant response rating [10, 17]: 98
Plant response rating, Foxtail, Giant [10, 18]: 10
Plant response rating, Foxtail, Giant [10, 19]: 20
Foxtail, Giant plant response rating [10, 20]: 65
Plant response rating, Crabgrass, Large [11, 13]: 100
Plant response rating, Crabgrass, Large [11, 14]: 90
Plant response rating, Crabgrass, Large [11, 15]: 95
Plant response rating, Crabgrass, Large [11, 16]: 95
Crabgrass, Large plant response rating [11, 17]: 98
Plant response rating, Crabgrass, Large [11, 18]: 20
Plant response rating, Crabgrass, Large [11, 19]: 90
Crabgrass, Large plant response rating [11, 20]: 100
Plant response rating, Blackgrass [12, 13]: 25
Plant response rating, Blackgrass [12, 14]: 5
Plant response rating, Blackgrass [12, 15]: 5
Plant response rating, Blackgrass [12, 16]: 15
Blackgrass plant response rating [12, 17]: 15
Plant response rating, Blackgrass [12, 18]: 20
Plant response rating, Blackgrass [12, 19]: 25
Blackgrass plant response rating [12, 20]: 25
